Patent publication US20220071210A1, “FUNGICIDAL MIXTURE” (Adama Makhteshim Ltd., priority 2018, published 2022)

System: Ramularia collo-cygni
Assay: Fungicidal control of Ramularia collo-cygni on winter barley (spray treatments, alone and tank mix)
Format: in vivo
Conditions: sprayed twice 14 days apart, rate (gr A.I./ha) as in table; for % control observed, 38 Days after 2nd application: untreated severity 85.6%; for % control observed, 44 Days after 2nd application: untreated severity 100%
Description: An experiment was conducted to evaluate the fungicidal control of Ramularia collo-cygni on winter barley with a dehydrogenase inhibitor fungicide (fluxapyroxad), and folpet, alone, and in binary mixtures.
The experiments were conducted by applying a commercially available composition of fluxapyroxad (Imtrex®) and folpet (MCW-296 SC) alone or together. The compositions were diluted with water to the stated concentration of the active compound.
The following active ingredients and their mixtures were evaluated: • Fluxapyroxad 90 gr (A.I.)/ha • Folpet 750 gr (A.I.)/ha • Fluxapyroxad+Folpet 90 gr (A.I.)/ha+750 gr (A.I.)/ha
To test for fungicidal control of Ramularia collo-cygni, the winter barley was sprayed with each of the above treatments. Each of the above treatments were applied twice, the 2nd treatment occurring 14 days after the first treatment. The treatments were composed of 4 replicates.
Evaluations were performed at 38 days and 44 days after the second treatment. At these times the severity of the Ramularia collo-cygni was determined. At the time of the 1st evaluation (38 days after the second treatment) the severity of the infection of Ramularia collo-cygni on the winter barley was 85.6%. At the time of the 2nd evaluation (44 days after the second treatment) the severity was 100%.
The visually determined percentages of infected leaf areas may be converted into efficacies in % of the untreated control:
The efficacy (E) is calculated as follows using Abbott's formula: […]
A corresponds to the fungicidal infection of the treated plants in % and B corresponds to the fungicidal infection of the untreated (control) plants in %.
An efficacy of 0 means that the infection level of the treated plants corresponds to that of the untreated control plants; an efficacy of 100 means that the treated plants are not infected.
In the field of agriculture, it is often understood that the term “synergy” is as defined by Colby S. R. in an article entitled “Calculation of the synergistic and antagonistic responses of herbicide combinations” published in the journal Weeds, 1967, 15, p. 20-22. The action expected for a given combination of two active components can be calculated as follows: […]
in which E represents the expected percentage of fungicidal control for the combination of the two fungicides at defined doses (for example equal to x and y respectively), X is the percentage of fungicidal control observed by the compound (I) at a defined dose (equal to x), Y is the percentage of fungicidal control observed by the compound (II) at a defined dose (equal to y). When the percentage of fungicidal control observed for the combination is greater than the expected percentage, there is a synergistic effect.

| Structure (SMILES) | % control observed, 38 Days after 2nd application | % control observed, 44 Days after 2nd application |
| --- | --- | --- |
| Cn1cc(C(=O)Nc2ccccc2-c2cc(F)c(F)c(F)c2)c(C(F)F)n1 [Fluxapyroxad, fluxapyroxad] | 47.1% | 12.2% |
| O=C1c2ccccc2C(=O)N1SC(Cl)(Cl)Cl [Folpet, folpet] | 30.3% | 9.7% |
